Data on six molecules can be found in patent US20250230131A1, “NOVEL IONIZABLE LIPID AND LIPID NANOPARTICLE COMPOSITION USING SAME” (MediciBIO Co., Ltd, priority 2022, published 2025).

For data set [1], the system named is mice of the C57BL/6 lineage. As to the kind of experiment: Gene delivery efficiency in vivo, intravenous injection, liver luciferase expression. The note with it: C57BL/6 mice, after 4 hours. On the procedure: (§1) In order to identify the gene delivery efficacy and distribution of lipid nanoparticles in vivo, lipid nanoparticles were injected into 7-week-old mice of the C57BL/6 lineage either intravenously or intramuscularly in the thigh. The liver was extracted in the case of intravenous injection and the organs including the femoral muscle were extracted in the case of intramuscular injection by sacrificing the mice after 4 hours.
(§2) To determine the level of luciferase expression in tissue samples, the tissue sections were weighed and transferred to a tube containing 3 mm metal beads, and a homogenized by adding 500 μl of Glo-Lysis Buffer (Promega) per 50 mg of tissue. The supernatant from the centrifuged homogenates was collected and diluted with the Glo-Lysis Buffer to an appropriate ratio. The diluted homogenates and the Steady-Glo Luciferase Assay solution were then mixed in a 1:1 ratio, with 50 μl of each. After a 5-minute incubation, the luminescence values of luciferase were measured using the same method as described in Example 3-1, and the expression levels (ng/g tissue) of luciferase were calculated.

The nature of data set [2]: Gene encapsulation efficiency, Quant-iT Ribogreen RNA Reagent and Kit. It counts as physicochemical. The note with it: lipid nanoparticles, TE buffer vs 2% Triton-TE buffer. As for the experimental part: To determine a gene encapsulation efficiency of lipid nanoparticles, the Quant-iT™ Ribogreen™ RNA Reagent and Kit was used. A stock solution for the calibration curve was prepared by taking 5 μL of the ribosomal RNA standard (100 μg/mL in TE buffer) and diluting it with either 245 μL of TE buffer or 0.4% Triton-TE buffer, respectively. Aliquots of 2, 5, 10, 25, and 50 μL of the stock solution were taken, diluted with TE buffer or 0.4% Triton-TE buffer to achieve a total volume of 100 μL, and then mixed with 100 μL of Quant-iT™ Ribogreen™ RNA Reagent; the fluorescence intensity (excitation 475 nm and emission 500˜550 nm) was measured to create a calibration curve. A volume of 5 μL of the nanoparticle solution prepared in Example 2 was taken and diluted with 245 μL of TE buffer (10 mM Tris-HCl, 1 mM EDTA, pH 7.5 in DEPC-treated water). After 50 μL of TE buffer or 50 μL of 2% Triton-TE buffer was added to 50 μL of the diluted nanoparticle solution, respectively, the mixture was incubated at 37° C. for about 10 minutes. Afterwards, 40 μL of each mixture was transferred to a microplate, and 60 μL of TE buffer and 100 μL of Quant-iT™ Ribogreen™ RNA Reagent were added sequentially to measure the fluorescence intensity. After calculating the gene dosage (T0) in the TE buffer and the gene dosage (T2) in the 2% Triton-TE buffer by substituting the measured fluorescence intensity into the calibration curve, the gene encapsulation efficiency was calculated using the following Mathematical Equation 1.

Data set [3] can be described thus: Surface charge (zeta potential) of lipid nanoparticles. The format is physicochemical. The note with it: diluted with PBS to mRNA 1 μg/mL. On the procedure: (§3) The size and surface charge of lipid nanoparticles according to the ionizable lipid prepared in Example 1 were measured. To measure the size of the lipid nanoparticles, dilution was conducted using PBS to reach the concentration of mRNA contained in each lipid nanoparticle to 1 μg/mL, and Dynamic Light Scattering (DLS) of Malvern Zetasizer Nano (Malvern Instruments, UK) was applied to measure the diameter and a polydispersity index (hereinafter referred to as PDI) of lipid nanoparticles. In addition, in order to measure the surface charge of lipid nanoparticles, dilution was conducted using PBS to reach the concentration of mRNA contained in each lipid nanoparticle to 1 μg/mL, and the surface charge (zeta potential) was measured using the same equipment as above.

Data set [4] can be described thus: Size (diameter) and PDI of lipid nanoparticles by Dynamic Light Scattering. The note with it: lipid nanoparticles of the ionizable lipid; diluted with PBS to mRNA 1 μg/mL; DLS. The format is physicochemical. As for the experimental part:
as §3

For another data set, the system named is HeLa cells. As to the kind of experiment: Intracellular gene delivery efficacy of FLuc mRNA-LNP (luciferase expression). The format is cell-based, human. The note with it: 0.25 μg/ml encapsulated FLuc mRNA, 6 hours. As for the experimental part:
To determine the intracellular gene delivery efficacy of lipid nanoparticles, lipid nanoparticles encapsulated with FLuc mRNA(Fluc mRNA-LNP) were used. To evaluate the gene delivery efficacy, HeLa cells (Korea Cell Line Bank, Seoul), human cervical cancer cell lines expressing low-density lipoprotein (LDL) receptors on the cell surface, were used, and cultured with the MEM medium containing 10% fetal bovine serum and penicillin/streptomycin at 37° C. in the presence of 5% CO2. HeLa cell lines were seeded at 2×10^4 cells per well in a 96-well plate, and after 16˜24 hours, the cells were treated with lipid nanoparticles at a concentration of 0.25 μg/ml based on encapsulated mRNA, in a total volume of 100 μl MEM medium per well in the absence or the presence of 10% fetal bovine serum (FBS).
To measure the expression of intracellular luciferase after FLuc mRNA delivery by lipid nanoparticles, the cells were washed with PBS after 6 hours of treatment. Then, and 100 μl of Glo-Lysis Buffer (Promega, WI, USA) was added to lyse the cells at room temperature for 5 minutes. The lysed cells were added with 100 μl of Steady-Glo™ Luciferase Assay solution (Promega) in a 1:1 ratio, left at room temperature for 5 minutes, and then transferred to a 96-well white plate. Luminescent values were detected using a GloMax Discover microplate reader (Promega). Recombinant luciferase (Promega) was used as the standard material to generate the calibration curve, which was used to determine the luciferase concentration (pg/ml) in the samples.

Data set [5] concerns mice of the C57BL/6 lineage. Description: Gene delivery efficiency in vivo, intramuscular injection in the thigh, muscle luciferase expression. The note with it: femoral muscle, C57BL/6 mice, after 4 hours. On the procedure: as §1, §2

Regarding `CCCCCCCCC(CCCCCC)C(=O)OCCCCCCN(CCCCCCOC(=O)C(CCCCCC)CCCCCCCC)CCc1ccc(N)nc1` (centres unmarked) [Compound 4, ((2-(6-aminopyridin-3-yl)ethyl)azanediyl)bis(hexane-6,1-diyl) bis(2-hexyldecanoate)], the “Luciferase expression level (Mean ± SD)” value in data set [1] is listed as 6,844 ± 2,052 ng/g. In data set [2], this molecule came in with a Gene encapsulation efficiency of 78.2%. Besides, the “Surface Charge” value in data set [3] is on record as “+2.0 mV”. In addition, in data set [4], the PDI was 0.13 and the Particle size is listed as 84 nm.

`CCCCCCCCC(CCCCCC)C(=O)OCCCCCCN(CCCCCCOC(=O)C(CCCCCC)CCCCCCCC)CCN1CCNCC1` (centres unmarked) [Compound 2, ((2-(piperazin-1-yl)ethyl)azanediyl)bis(hexane-6,1-diyl) bis(2-hexyldecanoate)] registered a Gene encapsulation efficiency in data set [2] of 94.9%. In data set [3], the “Surface Charge” value is reported as “+28.1 mV”. Besides, the entries for the “Luciferase expression level (Mean ± SD)” value in the data set on HeLa cells (10% FBS) and with HeLa cells (w/o FBS) were 8,492 ± 2,375 pg/ml and 15,270 ± 2,273 pg/ml, respectively. Besides, the PDI in data set [4] is listed as 0.12. This molecule also came in with a Particle size in data set [4] of 106 nm.

Molecule `CCCCCCCCC(CCCCCC)C(=O)OCCCCCCN(CCCCCCOC(=O)C(CCCCCC)CCCCCCCC)Cc1ccc(N)cc1` (centres unmarked) [Compound 3, ((4-aminobenzyl)azanediyl)bis(hexane-6,1-diyl) bis(2-hexyldecanoate)] yielded a Gene encapsulation efficiency in data set [2] of 93.8%. Besides, the “Surface Charge” value in data set [3] was −1.4 mV. In data set [4], this molecule showed a PDI of 0.18 and a Particle size of 78 nm.

With `CCCCCCCCC(CCCCCC)C(=O)OCCCCCCN(CCCCCCOC(=O)C(CCCCCC)CCCCCCCC)CCC1CCNCC1` (centres unmarked) [Compound 1, ((2-(piperidin-4-yl)ethyl)azanediyl)bis(hexane-6,1-diyl) bis(2-hexyldecanoate)], the Gene encapsulation efficiency in data set [2] stood at 99.7%. In data set [3], the “Surface Charge” value is on record as “+29.1 mV”. Further, in the data set with HeLa cells (10% FBS), the “Luciferase expression level (Mean ± SD)” value is given as 16,060 ± 102 pg/ml. Also, the “Luciferase expression level (Mean ± SD)” value in the data set with HeLa cells (w/o FBS) is listed as 16,685 ± 646 pg/ml. In data set [4], this molecule returned a PDI of 0.09 and a Particle size of 121 nm.

In the case of `CCCCCCCCC(CCCCCC)C(=O)OCCCCCCN(CCCCCCOC(=O)C(CCCCCC)CCCCCCCC)CCCn1cc(C)nc1C` (centres unmarked) [Compound 6, ((3-(2,4-dimethyl-1H-imidazol-1-yl)propyl)azanediyl)bis(hexane-6,1-diyl)bis(2-hexyldecanoate)], the “Luciferase expression level (Mean ± SD)” value in data set [1] is 1,172 ± 99 ng/g; in data set [5] it was 358 ± 74 ng/g.

Consider `CCCCCCCCC(CCCCCC)C(=O)OCCCCCCN(CCCCCCOC(=O)C(CCCCCC)CCCCCCCC)CCCn1ccnc1C` (centres unmarked) [Compound 5, ((3-(2-methyl-1H-imidazol-1-yl)propyl)azanediyl)bis(hexane-6,1-diyl) bis(2-hexyldecanoate)], for which the “Luciferase expression level (Mean ± SD)” value in data set [1] is given as 2,582 ± 745 ng/g. In data set [2], this molecule came in with a Gene encapsulation efficiency of 93.5%. Also, the “Surface Charge” value in data set [3] is “+19.9 mV”. In addition, the “Luciferase expression level (Mean ± SD)” value in data set [5] was 651 ± 158 ng/g. In data set [4], the PDI is listed as 0.08 and the Particle size worked out at 104 nm.
